Where two headings read alike, the source gives them in different places.

Consider 71 compounds from US10273503B2, “Compounds and methods for enhancing viral gene transfer to human hematopoietic cells” (UNIVERSTÉ DE MONTRÉAL, priority 2015, dated 2019).

The test system of the assay is human CD34+ cells. Description: Expansion of human CD34+ cells (EC50, CD34+CD45RA- cell count). In kind it is cell-based. As to conditions: concentration that results in a 50% increase in CD34+CD45RA- cell count compared to vehicle cultures (DMSO); for EC50: read-out: Biological data (EC50)*.

For `COC(=O)c1ccc2c(c1)[nH]c1ncnc(NCCCN3CCCCC3)c12` [Cmpd 2], the EC50 (Homo sapiens) lay in the range of 250 to 500 nM.
On the same count and under the same terms, in the case of `COC(=O)c1ccc2c(c1)[nH]c1ncnc(NCCCN3CCCC3)c12` [Cmpd 9] it was 100 to 250 nM.
Same read-out and setting: in the case of `COC(=O)c1ccc2c(c1)[nH]c1ncnc(NCCCCN(C)C)c12` [Cmpd 10] it was 250 to 500 nM.
Turning to `COC(=O)c1ccc2c(c1)[nH]c1ncnc(NCCN(C)C)c12` [Cmpd 11], the EC50 (Homo sapiens) lay within 100 to 250 nM.
As for `COC(=O)c1ccc2c(c1)[nH]c1ncnc(NCCCN(C)C)c12` [Cmpd 12], for the setting “Homo sapiens”, the EC50 lay in the range of 500 to 1000 nM.
Same read-out and setting: in the case of `COC(=O)c1ccc2c(c1)[nH]c1ncnc(NCCN3CCCCC3)c12` [Cmpd 13] it was 250 to 500 nM; in that of `COC(=O)c1ccc2c(c1)[nH]c1ncnc(NCCCN3CCCCC3C)c12` (centres unmarked) [Cmpd 14], 100 to 250 nM.
Still for that read-out and setting: in the case of `COC(=O)c1ccc2c(c1)[nH]c1ncnc(NCCCN)c12` [Cmpd 15] it was 250 to 500 nM; in that of `COC(=O)c1ccc2c(c1)[nH]c1ncnc(NCC(O)CN3CCCCC3)c12` (centres unmarked) [Cmpd 16], 250 to 500 nM; in that of `COC(=O)c1ccc2c(c1)[nH]c1ncnc(NC3CCNCC3)c12` [Cmpd 17], 500 to 1000 nM.
The same measure, in the same setting: with `COC(=O)c1ccc2c(c1)[nH]c1ncnc(NCCC3CCNCC3)c12` [Cmpd 18] the figure was 250 to 500 nM; with `COC(=O)c1ccc2c(c1)[nH]c1ncnc(NCCCN3CCOCC3)c12` [Cmpd 19], over 1000 nM; with `COC(=O)c1ccc2c(c1)[nH]c1ncnc(N3CCC(N4CCCCC4)CC3)c12` [Cmpd 20], 100 to 250 nM.
Regarding `Cn1nnc(-c2ccc3c(c2)[nH]c2ncnc(NCCCN4CCCCC4)c23)n1` [Cmpd 21], the EC50 (Homo sapiens) fell in the range of 100 to 250 nM.
The same measure, in the same setting: in the case of `COC(=O)c1ccc2c(c1)[nH]c1nc(Cc3cccnc3)nc(NCCCN3CCCCC3)c12` [Cmpd 22] it was under 100 nM; in that of `COC(=O)c1ccc2c(c1)[nH]c1nc(Cc3ccncc3)nc(NCCCN3CCCCC3)c12` [Cmpd 23], 250 to 500 nM; in that of `COC(=O)c1ccc2c(c1)[nH]c1nc(Cc3cnccn3)nc(NCCCN3CCCCC3)c12` [Cmpd 24], 500 to 1000 nM.
On the same count and under the same terms, in the case of `COC(=O)c1ccc2c(c1)[nH]c1nc(Cc3ccsc3)nc(NCCCN3CCCCC3)c12` [Cmpd 25] it was under 100 nM.
Same read-out and setting: in the case of `COC(=O)c1ccc2c(c1)[nH]c1nc(Cc3cc(Br)cc(I)c3)nc(NCCCN3CCCCC3)c12` [Cmpd 26] it was under 100 nM; in that of `COC(=O)c1ccc2c(c1)[nH]c1nc(Cc3ccc4ccccc4c3)nc(NCCCN3CCCCC3)c12` [Cmpd 27], 100 to 250 nM; in that of `COC(=O)c1ccc2c(c1)[nH]c1nc(C(OC)c3ccccc3)nc(NCCCN3CCCCC3)c12` (centres unmarked) [Cmpd 28], under 100 nM.
With `COC(=O)c1ccc2c(c1)[nH]c1nc(C(O)c3ccccc3)nc(NCCCN3CCCCC3)c12` (centres unmarked) [Cmpd 29], the “Biological data (EC50)*” value is “F (F = compound showed >1.3 fold expansion)”.
Still for that read-out and setting: with `COC(=O)c1ccc2c(c1)[nH]c1nc(C(=O)c3ccccc3)nc(NCCCN3CCCCC3)c12` [Cmpd 30] the entry was “F (F = compound showed >1.3 fold expansion)”.
On to `COC(=O)c1ccc2c(c1)[nH]c1nc(C(C)c3ccccc3)nc(NCCCN3CCCCC3)c12` (centres unmarked) [Cmpd 31], for which the EC50 (Homo sapiens) is under 100 nM.
With `COC(=O)c1ccc2c(c1)[nH]c1nc(Cc3cccc(C4(C(F)(F)F)N=N4)c3)nc(NCCCN3CCCCC3)c12` [Cmpd 32], the EC50 (Homo sapiens) was under 100 nM.
With `CCOC(=O)c1ccc2c(c1)[nH]c1nc(Cc3ccccc3)nc(NCCCN3CCCCC3)c12` [Cmpd 33], the “Biological data (EC50)*” value is on record as “F (F = compound showed >1.3 fold expansion)”.
As for `COC(=O)c1ccc2c(c1)[nH]c1nc(Cc3ccccc3)nc(NCCCN3CCCCC3)c12` [Cmpd 34], the EC50 (Homo sapiens) is under 100 nM.
Take `COC(=O)c1ccc2c(c1)[nH]c1nc(Cc3cccc(Br)c3)nc(NCCCN3CCCCC3)c12` [Cmpd 35]: where the note is “Homo sapiens”, the EC50 is under 100 nM.
On to `COC(=O)c1ccc2c(c1)[nH]c1nc(Cc3ccccc3C)nc(NCCCN3CCCCC3)c12` [Cmpd 36], for which the EC50 (Homo sapiens) was under 100 nM.
As for `COC(=O)c1ccc2c(c1)[nH]c1nc(Cc3ccc(C)cc3)nc(NCCCN3CCCCC3)c12` [Cmpd 37], the EC50 (Homo sapiens) is under 100 nM.
In the case of `COC(=O)c1ccc2c(c1)[nH]c1nc(Cc3cccc(OC)c3)nc(NCCCN3CCCCC3)c12` [Cmpd 38], under “Homo sapiens”, the EC50 is under 100 nM.
Same read-out and setting: with `COC(=O)c1ccc2c(c1)[nH]c1nc(Cc3cccc(C(=O)C(F)(F)F)c3)nc(NCCCN3CCCCC3)c12` [Cmpd 39] the figure was under 100 nM; with `Cn1nnc(-c2ccc3c(c2)[nH]c2nc(Cc4ccccc4)nc(NCCCN4CCCCC4)c23)n1` [Cmpd 41], under 100 nM.
`Cc1noc(-c2ccc3c(c2)[nH]c2nc(Cc4ccccc4)nc(NCCCN4CCCCC4)c23)n1.Cl` [Cmpd 42]: the “Biological data (EC50)*” value was “F (F = compound showed >1.3 fold expansion)”.
With `N#Cc1ccc2c(c1)[nH]c1nc(Cc3ccccc3)nc(NCCCN3CCCCC3)c12` [Cmpd 43], for the setting “Homo sapiens”, the EC50 is 250 to 500 nM.
On to `COC(=O)c1ccc2c(c1)[nH]c1ncnc(NC3CCC(N)CC3)c12` (centres unmarked) [Cmpd 44], for which the EC50 lay within 100 to 250 nM.
In the case of `COC(=O)c1ccc2c(c1)[nH]c1ncnc(NC3CCC(N)CC3)c12` (centres unmarked) [Cmpd 45], the EC50 was in the range of 250 to 500 nM.
Regarding `CN(C)C1CCC(Nc2nc(Cc3ccccc3)nc3[nH]c4cc(-c5nnn(C)n5)ccc4c23)CC1` (centres unmarked) [Cmpd 46], the EC50 (Homo sapiens) is under 100 nM.
The same measure, in the same setting: with `COC(=O)c1ccc2c(c1)[nH]c1nc(Cc3ccccc3)nc(OCCCN3CCCCC3)c12` [Cmpd 47] the figure was 500 to 1000 nM.
For the compound `COC(=O)c1ccc2c(c1)[nH]c1nc(Cc3ccccc3)nc(CCCCN3CCCCC3)c12` [Cmpd 48], the “Biological data (EC50)*” value is on record as “F (F = compound showed >1.3 fold expansion)”.
In the case of `COC(=O)c1ccc2c(c1)[nH]c1nc(Cc3ccccc3)nc(NCCCN(C)CCOCCOCCO)c12` [Cmpd 49], for the setting “Homo sapiens”, the EC50 was under 100 nM.
On the same count and under the same terms, with `COC(=O)c1ccc2c(c1)[nH]c1nc(Cc3ccccc3)nc(NCCCN(C)CCCN)c12` [Cmpd 50] the figure was under 100 nM.
Still for that read-out and setting: in the case of `COC(=O)c1ccc2c(c1)[nH]c1nc(Cc3ccccc3)nc(NCC(O)CN3CCCCC3)c12` (centres unmarked) [Cmpd 51] it was under 100 nM; in that of `C#CCOC(CNc1nc(Cc2ccccc2)nc2[nH]c3cc(C(=O)OC)ccc3c12)CN1CCCCC1` (centres unmarked) [Cmpd 52], under 100 nM.
The same measure, in the same setting: in the case of `CCN(CCCN1CCCCC1)c1nc(Cc2ccccc2)nc2[nH]c3cc(C(=O)OC)ccc3c12` [Cmpd 53] it was over 1000 nM.
As for `C#CCNCCCN(C)CCCNc1nc(Cc2ccccc2)nc2[nH]c3cc(C(=O)OC)ccc3c12` [Cmpd 54], the “Biological data (EC50)*” value is “F (F = compound showed >1.3 fold expansion)”.
Regarding `COC(=O)c1ccc2c(c1)[nH]c1nc(Cc3ccccc3)nc(NCCCN(C)CCCNC(=O)CCCC[C@@H]3SC[C@@H]4NC(=O)N[C@@H]43)c12` [Cmpd 56], the EC50 (Homo sapiens) was 250 to 500 nM.
With `COC(=O)c1ccc2c(c1)[nH]c1nc(Cc3cccc(C4(C(F)(F)F)N=N4)c3)nc(NCCCN(C)CCCNC(=O)CCCCC3SCC4NC(=O)NC43)c12` (centres unmarked) [Cmpd 57], the “Biological data (EC50)*” value was “F (F = compound showed >1.3 fold expansion)”.
Take `COC(=O)c1ccc2c(c1)[nH]c1nc(C)nc(NCCCN3CCCCC3)c12` [Cmpd 58]: the EC50 (Homo sapiens) was over 1000 nM.
Regarding `CNC(=O)c1ccc2c(c1)[nH]c1nc(Cc3ccccc3)nc(NCCCN3CCCCC3)c12` [Cmpd 59], the EC50 (Homo sapiens) was over 1000 nM.
On to `COC(=O)c1cnc2c(c1)[nH]c1nc(Cc3ccccc3)nc(NCCCN3CCCCC3)c12` [Cmpd 60], for which the EC50 (Homo sapiens) lay within 250 to 500 nM.
The same measure, in the same setting: with `COC(=O)c1cnc2c(c1)[nH]c1nc(Cc3ccsc3)nc(NCCCN3CCCCC3)c12` [Cmpd 61] the figure was 250 to 500 nM; with `COC(=O)c1cnc2c(c1)[nH]c1nc(Cc3ccsc3)nc(SCCCN3CCCCC3)c12` [Cmpd 62], 500 to 1000 nM.
The same measure, in the same setting: in the case of `COC(=O)c1cnc2c(c1)[nH]c1nc(Cc3cccc(OC)c3)nc(NCCCN3CCCCC3C)c12` (centres unmarked) [Cmpd 63] it was 250 to 500 nM; in that of `CCN(CC)CCNc1nc(Cc2cccc(OC)c2)nc2[nH]c3cc(C(=O)OC)cnc3c12` [Cmpd 64], 500 to 1000 nM.
On to `COC(=O)c1cnc2c(c1)[nH]c1nc(Cc3ccccc3)nc(N(C)CCCN3CCCCC3)c12` [Cmpd 65], for which the EC50 (Homo sapiens) is under 100 nM.
With `COC(=O)c1cnc2c(c1)[nH]c1nc(Cc3ccccc3C)nc(NCCCN3CCCCC3)c12` [Cmpd 66], the EC50 (Homo sapiens) was 250 to 500 nM.
As to `COC(=O)c1cnc2c(c1)[nH]c1nc(Cc3ccccc3C)nc(NCCCN3CCCC3)c12` [Cmpd 67], under “Homo sapiens”, the EC50 is 250 to 500 nM.
As for `CNCCCNc1nc(Cc2ccccc2C)nc2[nH]c3cc(C(=O)OC)cnc3c12` [Cmpd 68], where the note is “Homo sapiens”, the EC50 was 500 to 1000 nM.
As to `Cn1nnc(-c2cnc3c(c2)[nH]c2nc(Cc4ccccc4)nc(N[C@H]4CC[C@H](N)CC4)c23)n1` [Cmpd 69], under “Homo sapiens”, the EC50 fell in the range of 250 to 500 nM.
For the compound `COC(=O)c1cnc2c(c1)[nH]c1nc(Cc3cccc(F)c3)nc(NCCCN3CCCCC3)c12` [Cmpd 70], under “Homo sapiens”, the EC50 is over 1000 nM.
Turning to `COC(=O)c1cnc2c(c1)[nH]c1nc(Cc3cccc(F)c3)nc(NCCCN(C)CCCN)c12` [Cmpd 71], the EC50 (Homo sapiens) was in the range of 250 to 500 nM.
Same read-out and setting: in the case of `CNCCCNc1nc(Cc2cccc(F)c2)nc2[nH]c3cc(C(=O)OC)cnc3c12` [Cmpd 72] it was over 1000 nM.
With `COC(=O)c1cnc2c(c1)[nH]c1nc(Cc3ccccc3)nc(NCC(C)CN(C)C)c12` (centres unmarked) [Cmpd 73], the EC50 (Homo sapiens) was in the range of 500 to 1000 nM.
Still for that read-out and setting: with `COC(=O)c1cnc2c(c1)[nH]c1nc(Cc3ccccc3)nc(N3CCC(N(C)C)CC3)c12` [Cmpd 74] the figure was 100 to 250 nM.
On the same count and under the same terms, in the case of `CCN(CC)CCN(CC)c1nc(Cc2ccccc2)nc2[nH]c3cc(C(=O)OC)cnc3c12` [Cmpd 75] it was 250 to 500 nM; in that of `COC(=O)c1ccc2c(c1)[nH]c1ccnc(NCCCN3CCCCC3)c12` [Cmpd 76], over 1000 nM.
Still for that read-out and setting: in the case of `COC(=O)c1ccc2c(c1)[nH]c1cc(Cc3ccccc3)nc(NCCCN3CCCCC3)c12` [Cmpd 77] it was under 100 nM; in that of `COC(=O)c1ccc2c(c1)[nH]c1cc(Cc3ccccc3)nc(NCCN3CCCC3)c12` [Cmpd 78], under 100 nM.
As to `COC(=O)c1ccc2c(c1)[nH]c1cc(Cc3ccccc3)nc(N(C)CCCN(C)C)c12` [Cmpd 79], the EC50 (Homo sapiens) was under 100 nM.
For `Cn1nnc(-c2ccc3c(c2)[nH]c2cc(Cc4ccccc4)nc(NCCCN4CCCCC4)c23)n1` [Cmpd 80], the EC50 (Homo sapiens) lay in the range of 100 to 250 nM.
